Measured values published in patent US10485235B2, “Aryloxypyrimidinyl ethers as herbicides” (FMC Corporation, priority 2015, dated 2019).

Assays:
Format in all cases: in vivo
[1] = tested on: wheat (Triticum aestivum); test: Test A postemergence, wheat; conditions: postemergence, 0 to 100 scale, 0 is no effect, 100 is complete control, approximately 10 days
Method in brief: (§1)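 For postemergence, one- to two-leaf plants 2–10 cm tall were sprayed; for preemergence, seeded loam–sand soil got a directed spray. Both used compound in a non-phytotoxic, surfactant-containing solvent, with visual injury ratings (0–100) after roughly 10 greenhouse days.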

[2] = tested on: ducksalad (Heteranthera limosa); test: Test B flooded paddy test, ducksalad; conditions: 250 g ai/ha, Flood; visual rating after 13 to 15 days; scale 0 to 100, 0 is no effect, 100 is complete control
Method in brief: (§2)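 Visual ratings, 0 = no effect to 100 = complete control, versus controls after 13 to 15 days in greenhouse. Test compounds were added to paddy water kept 3 cm over the soil surface, on plants at 2-leaf stage.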

[3] = tested on: ryegrass, Italian (Italian ryegrass, Lolium multiflorum); test: Test A preemergence, Italian ryegrass; conditions: Preemergence, 0 to 100 scale (0 no effect, 100 complete control)
Method in brief: as §1

[4] = tested on: pigweed (Amaranthus retroflexus); test: Test A postemergence, pigweed; conditions: postemergence, 0 to 100 scale, 0 is no effect, 100 is complete control, approximately 10 days
Method in brief: as §1

[5] = tested on: ragweed (common ragweed, Ambrosia elatior); test: Test A postemergence, ragweed; conditions: postemergence, 0 to 100 scale, 0 is no effect, 100 is complete control, approximately 10 days
Method in brief: as §1

[6] = tested on: blackgrass (Alopecurus myosuroides); test: Test A postemergence, blackgrass; conditions: postemergence, 0 to 100 scale, 0 is no effect, 100 is complete control, approximately 10 days
Method in brief: as §1

[7] = tested on: barnyardgrass (Echinochloa crus-galli); test: Test A postemergence, barnyardgrass; conditions: postemergence, 0 to 100 scale, 0 is no effect, 100 is complete control, approximately 10 days
Method in brief: as §1

[8] = tested on: ryegrass, Italian (Italian ryegrass, Lolium multiflorum); test: Test A postemergence, Italian ryegrass; conditions: postemergence, 0 to 100 scale, 0 is no effect, 100 is complete control, approximately 10 days
Method in brief: as §1

kochia (Kochia scoparia) [9] = test: Test A postemergence, kochia; conditions: postemergence, 0 to 100 scale, 0 is no effect, 100 is complete control, approximately 10 days
Method in brief: as §1

[10] = tested on: barnyardgrass (Echinochloa crus-galli); test: Test B flooded paddy test, barnyardgrass; conditions: 250 g ai/ha, Flood; visual rating after 13 to 15 days; scale 0 to 100, 0 is no effect, 100 is complete control
Method in brief: as §2

[11] = tested on: galium (catchweed bedstraw, Galium aparine); test: Test A postemergence, galium; conditions: postemergence, 0 to 100 scale, 0 is no effect, 100 is complete control, approximately 10 days
Method in brief: as §1

[12] = tested on: foxtail, giant (giant foxtail, Setaria faberii); test: Test A preemergence, giant foxtail; conditions: Preemergence, 0 to 100 scale (0 no effect, 100 complete control)
Method in brief: as §1

corn (Zea mays) = test: Test A postemergence, corn; conditions: postemergence, 0 to 100 scale, 0 is no effect, 100 is complete control, approximately 10 days
Method in brief: as §1

[13] = tested on: ragweed (common ragweed, Ambrosia elatior); test: Test A preemergence, ragweed; conditions: Preemergence, 0 to 100 scale (0 no effect, 100 complete control)
Method in brief: as §1

kochia (Kochia scoparia) [14] = test: Test A preemergence, kochia; conditions: Preemergence, 0 to 100 scale (0 no effect, 100 complete control)
Method in brief: as §1

[15] = tested on: pigweed (Amaranthus retroflexus); test: Test A preemergence, pigweed; conditions: Preemergence, 0 to 100 scale (0 no effect, 100 complete control)
Method in brief: as §1

[16] = tested on: barnyardgrass (Echinochloa crus-galli); test: Test A preemergence, barnyardgrass; conditions: Preemergence, 0 to 100 scale (0 no effect, 100 complete control)
Method in brief: as §1

rice (Oryza sativa) = test: Test B flooded paddy test, rice; conditions: 250 g ai/ha, Flood; visual rating after 13 to 15 days; scale 0 to 100, 0 is no effect, 100 is complete control
Method in brief: as §2

[17] = tested on: foxtail, giant (giant foxtail, Setaria faberii); test: Test A postemergence, giant foxtail; conditions: postemergence, 0 to 100 scale, 0 is no effect, 100 is complete control, approximately 10 days
Method in brief: as §1

[18] = tested on: sedge, umbrella (small-flower umbrella sedge, Cyperus difformis); test: Test B flooded paddy test, umbrella sedge; conditions: 250 g ai/ha, Flood; visual rating after 13 to 15 days; scale 0 to 100, 0 is no effect, 100 is complete control
Method in brief: as §2

SMILES	Plant response rating, Wheat ([1]; 31 g ai/ha)	Plant response rating, Wheat ([1]; 125 g ai/ha)	Plant response rating, Ducksalad [2]	Plant response rating, Ryegrass, Italian ([3]; 31 g ai/ha)	Plant response rating, Ryegrass, Italian ([3]; 125 g ai/ha)	Plant response rating, Pigweed ([4]; 31 g ai/ha)	Plant response rating, Pigweed ([4]; 125 g ai/ha)	Plant response rating, Ragweed ([5]; 31 g ai/ha)	Plant response rating, Ragweed ([5]; 125 g ai/ha)	Plant response rating, Blackgrass ([6]; 31 g ai/ha)	Plant response rating, Blackgrass ([6]; 125 g ai/ha)	Plant response rating, Barnyardgrass ([7]; 31 g ai/ha)	Plant response rating, Barnyardgrass ([7]; 125 g ai/ha)	Plant response rating, Ryegrass, Italian ([8]; 31 g ai/ha)	Plant response rating, Ryegrass, Italian ([8]; 125 g ai/ha)	Plant response rating, Kochia (kochia (Kochia scoparia) [9]; 31 g ai/ha)	Plant response rating, Kochia (kochia (Kochia scoparia) [9]; 125 g ai/ha)	Plant response rating, Barnyardgrass [10]	Plant response rating, Galium ([11]; 31 g ai/ha)	Plant response rating, Galium ([11]; 125 g ai/ha)	other results
N#Cc1cccc(Oc2ncc(F)cn2)c1OC/C=C/C(F)(F)F [Compound 39]	0	20	65	0	20	90	100	0	10	10	60	20	40	0	50	90	90	30	20	60	Plant response rating, Foxtail, Giant ([12]; 31 g ai/ha): 90; Plant response rating, Foxtail, Giant ([12]; 125 g ai/ha): 100; Plant response rating, Corn (corn (Zea mays); 31 g ai/ha): 20; Plant response rating, Corn (corn (Zea mays); 125 g ai/ha): 50; Plant response rating, Ragweed ([13]; 31 g ai/ha): 0; Plant response rating, Ragweed ([13]; 125 g ai/ha): 10; Plant response rating, Kochia (kochia (Kochia scoparia) [14]; 31 g ai/ha): 60; Plant response rating, Kochia (kochia (Kochia scoparia) [14]; 125 g ai/ha): 100; Plant response rating, Pigweed ([15]; 31 g ai/ha): 100; Plant response rating, Pigweed ([15]; 125 g ai/ha): 100; Plant response rating, Barnyardgrass ([16]; 31 g ai/ha): 50; Plant response rating, Barnyardgrass ([16]; 125 g ai/ha): 100; Plant response rating, Rice (rice (Oryza sativa)): 15; Plant response rating, Foxtail, Giant ([17]; 31 g ai/ha): 20; Plant response rating, Foxtail, Giant ([17]; 125 g ai/ha): 90; Plant response rating, Sedge, Umbrella [18]: 100
N#Cc1cccc(Oc2ncc(F)cn2)c1OCCC(F)(F)F [Compound 40]	0	0	75	0	10	80	90	0	10	10	30	0	50	0	10	50	70	0	20	60	Plant response rating, Foxtail, Giant ([12]; 31 g ai/ha): 70; Plant response rating, Foxtail, Giant ([12]; 125 g ai/ha): 90; Plant response rating, Corn (corn (Zea mays); 31 g ai/ha): 10; Plant response rating, Corn (corn (Zea mays); 125 g ai/ha): 20; Plant response rating, Ragweed ([13]; 31 g ai/ha): 10; Plant response rating, Ragweed ([13]; 125 g ai/ha): 90; Plant response rating, Kochia (kochia (Kochia scoparia) [14]; 31 g ai/ha): 90; Plant response rating, Kochia (kochia (Kochia scoparia) [14]; 125 g ai/ha): 100; Plant response rating, Pigweed ([15]; 31 g ai/ha): 100; Plant response rating, Pigweed ([15]; 125 g ai/ha): 100; Plant response rating, Barnyardgrass ([16]; 31 g ai/ha): 30; Plant response rating, Barnyardgrass ([16]; 125 g ai/ha): 80; Plant response rating, Rice (rice (Oryza sativa)): 0; Plant response rating, Foxtail, Giant ([17]; 31 g ai/ha): 10; Plant response rating, Foxtail, Giant ([17]; 125 g ai/ha): 80; Plant response rating, Sedge, Umbrella [18]: 70
FC(F)(F)CCOc1c(Cl)cccc1Oc1ncc(Cl)cn1 [Compound 43]	0	0	100	0	10	50	90	0	0	0	30	0	30	0	0	30	80	0	20	60	Plant response rating, Foxtail, Giant ([12]; 31 g ai/ha): 10; Plant response rating, Foxtail, Giant ([12]; 125 g ai/ha): 100; Plant response rating, Corn (corn (Zea mays); 31 g ai/ha): 10; Plant response rating, Corn (corn (Zea mays); 125 g ai/ha): 10; Plant response rating, Ragweed ([13]; 31 g ai/ha): 0; Plant response rating, Ragweed ([13]; 125 g ai/ha): 0; Plant response rating, Kochia (kochia (Kochia scoparia) [14]; 31 g ai/ha): 0; Plant response rating, Kochia (kochia (Kochia scoparia) [14]; 125 g ai/ha): 90; Plant response rating, Pigweed ([15]; 31 g ai/ha): 40; Plant response rating, Pigweed ([15]; 125 g ai/ha): 100; Plant response rating, Barnyardgrass ([16]; 31 g ai/ha): 20; Plant response rating, Barnyardgrass ([16]; 125 g ai/ha): 70; Plant response rating, Rice (rice (Oryza sativa)): 50; Plant response rating, Foxtail, Giant ([17]; 31 g ai/ha): 10; Plant response rating, Foxtail, Giant ([17]; 125 g ai/ha): 40; Plant response rating, Sedge, Umbrella [18]: 90
FCCCOc1c(Cl)cccc1Oc1ncc(Cl)cn1 [Compound 44]	0	0	70	0	0	30	70	0	0	0	10	0	10	0	0	20	70	0	10	20	Plant response rating, Foxtail, Giant ([12]; 31 g ai/ha): 10; Plant response rating, Foxtail, Giant ([12]; 125 g ai/ha): 80; Plant response rating, Corn (corn (Zea mays); 31 g ai/ha): 0; Plant response rating, Corn (corn (Zea mays); 125 g ai/ha): 10; Plant response rating, Ragweed ([13]; 31 g ai/ha): 0; Plant response rating, Ragweed ([13]; 125 g ai/ha): 0; Plant response rating, Kochia (kochia (Kochia scoparia) [14]; 31 g ai/ha): 0; Plant response rating, Kochia (kochia (Kochia scoparia) [14]; 125 g ai/ha): 40; Plant response rating, Pigweed ([15]; 31 g ai/ha): 10; Plant response rating, Pigweed ([15]; 125 g ai/ha): 100; Plant response rating, Barnyardgrass ([16]; 31 g ai/ha): 10; Plant response rating, Barnyardgrass ([16]; 125 g ai/ha): 20; Plant response rating, Rice (rice (Oryza sativa)): 0; Plant response rating, Foxtail, Giant ([17]; 31 g ai/ha): 0; Plant response rating, Foxtail, Giant ([17]; 125 g ai/ha): 20; Plant response rating, Sedge, Umbrella [18]: 30
N#CCCCOc1c(Cl)cccc1Oc1ncc(Cl)cn1 [Compound 45]	0	0	20	0	0	20	50	10	10	0	0	0	10	0	0	20	50	0	10	20	Plant response rating, Foxtail, Giant ([12]; 31 g ai/ha): 0; Plant response rating, Foxtail, Giant ([12]; 125 g ai/ha): 30; Plant response rating, Corn (corn (Zea mays); 31 g ai/ha): 0; Plant response rating, Corn (corn (Zea mays); 125 g ai/ha): 10; Plant response rating, Ragweed ([13]; 31 g ai/ha): 0; Plant response rating, Ragweed ([13]; 125 g ai/ha): 0; Plant response rating, Kochia (kochia (Kochia scoparia) [14]; 31 g ai/ha): 0; Plant response rating, Kochia (kochia (Kochia scoparia) [14]; 125 g ai/ha): 30; Plant response rating, Pigweed ([15]; 31 g ai/ha): 20; Plant response rating, Pigweed ([15]; 125 g ai/ha): 70; Plant response rating, Barnyardgrass ([16]; 31 g ai/ha): 0; Plant response rating, Barnyardgrass ([16]; 125 g ai/ha): 10; Plant response rating, Rice (rice (Oryza sativa)): 0; Plant response rating, Foxtail, Giant ([17]; 31 g ai/ha): 0; Plant response rating, Foxtail, Giant ([17]; 125 g ai/ha): 10; Plant response rating, Sedge, Umbrella [18]: 0
